In experiment [1] the target is rhIDO (recombinant human IDO) (Homo sapiens, UniProt P14902). Kind of experiment: Enzyme assay using rhIDO (rate of kynurenine production). It is filed as biochemical. To be noted: 2 h; final concentration of the compound 10 μM; rate relative to reaction without compound; read-out: rhIDO-mediated kynurenine production. In a few lines:
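Kynurenine formation, expressed as % of uncompounded reaction after background subtraction, was read by absorbance at 490 nm following TCA stop, 50 °C hydrolysis and Ehrlich-type p-dimethylbenzaldehyde staining. Recombinant human IDO with ascorbate/methylene blue/catalase was pre-exposed to compound 10 min, then reacted 120 min at 37 °C after adding 2 mM tryptophan stock.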

Experiment [2] addresses rhTDO (recombinant human TDO) (Homo sapiens, UniProt P48775). Kind of experiment: Enzyme assay using rhTDO (rate of kynurenine production). It is filed as biochemical. To be noted: 2 h; final concentration of the compound 10 μM; rate relative to reaction without compound; read-out: rhTDO-mediated kynurenine production. In a few lines: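 Kynurenine output, as percent of untreated control after background subtraction, read at 490 nm with p-dimethylbenzaldehyde following TCA quench and 15 min heating at 50 °C. Reaction: rhTDO with compound, 10 min preincubation then 120 min at 37 °C, started by 20 mM tryptophan stock, in phosphate/ascorbate/methylene blue/catalase.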

The target of experiment [3] is T1, IDO in A431 cells (Homo sapiens, UniProt P14902).
T1 construct: endogenous in cells; host or cells: A431 cells, IFN-γ stimulated
As to the kind of experiment: IDO cell-based assay, kynurenine production in IFN-γ stimulated A431 cells. To be noted: A-431, 24 h; final concentration of the compound 10 μM; rate relative to culture without compound. In a few lines:
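Kynurenine output was read by absorbance at 460 nm after p-dimethylbenzaldehyde/trichloroacetic acid reagent, background-corrected, and given as % of untreated wells. Before the read, cells in 178 μM L-tryptophan medium had 1 h compound preincubation, then 24 h IFN-γ stimulation (added as 100 ng/mL dilution).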

Experiment [4] concerns the target T2, TDO in A172 cells (Homo sapiens, UniProt P48775).
T2 construct: endogenous in cells; host or cells: A172 cells
As to the kind of experiment: TDO cell-based assay, kynurenine production in A172 cells. To be noted: A 172; final concentration of the compound 10 μM; rate relative to culture without compound. The procedure, abridged:
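A172 cells were preincubated with compound for 1 h, then given L-tryptophan (final 524 μM) for 24 h at 37 °C. Kynurenine was read at 460 nm after p-dimethylbenzaldehyde/TCA reagent, background-subtracted, and expressed as % of no-compound production.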

The values below come from patent US12209079B2 (GENERAL INCORPORATED ASSOCIATION PHARMA VALLEY PROJECT …, priority 2017, dated 2025).

Counter-ions that a name gives are not always drawn.

T2 sequence (P48775 whole entry): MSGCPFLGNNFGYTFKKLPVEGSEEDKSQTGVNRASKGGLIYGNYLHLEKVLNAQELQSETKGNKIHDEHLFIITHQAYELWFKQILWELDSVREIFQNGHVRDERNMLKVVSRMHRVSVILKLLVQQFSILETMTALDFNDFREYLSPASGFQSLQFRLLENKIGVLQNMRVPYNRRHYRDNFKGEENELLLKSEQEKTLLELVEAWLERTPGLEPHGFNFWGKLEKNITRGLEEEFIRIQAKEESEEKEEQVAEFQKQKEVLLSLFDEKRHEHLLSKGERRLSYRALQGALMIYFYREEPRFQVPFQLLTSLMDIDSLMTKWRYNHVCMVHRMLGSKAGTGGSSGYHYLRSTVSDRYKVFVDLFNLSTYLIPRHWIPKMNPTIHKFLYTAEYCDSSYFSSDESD
rhTDO (recombinant human TDO), sequence (P48775 whole entry): as above
rhIDO (recombinant human IDO), sequence (P14902 whole entry): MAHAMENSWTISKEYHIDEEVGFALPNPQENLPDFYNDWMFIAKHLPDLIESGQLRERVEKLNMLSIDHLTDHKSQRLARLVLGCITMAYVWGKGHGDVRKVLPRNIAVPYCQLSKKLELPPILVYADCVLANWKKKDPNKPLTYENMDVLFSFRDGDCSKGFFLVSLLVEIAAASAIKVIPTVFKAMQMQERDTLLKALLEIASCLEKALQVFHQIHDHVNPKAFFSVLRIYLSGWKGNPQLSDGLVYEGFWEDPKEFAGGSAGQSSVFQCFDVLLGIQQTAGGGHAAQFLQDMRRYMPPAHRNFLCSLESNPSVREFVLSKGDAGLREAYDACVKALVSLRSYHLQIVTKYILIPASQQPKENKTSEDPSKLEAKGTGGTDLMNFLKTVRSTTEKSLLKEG
T1 sequence (P14902 whole entry): as above

On to `N=C(N)SCc1cc(Br)ccc1C(=O)NCC1CC1` [Compound 93, 5-Bromo-2-((cyclopropylmethyl)carbamoyl)benzyl carbamimidothioate hydrobromide], for which the remaining activity at 10 µM was 103% in experiment [1], 53% in experiment [2], 124% in experiment [3] and 49% in experiment [4].

With `FC(F)(F)c1ccc(CCN2CN=C(SCc3ccc(Br)cc3CSC3=NCN(CCc4ccc(C(F)(F)F)cc4)CN3)NC2)cc1` [Compound 141, 6,6′-(((4-Bromo-1,2-phenylene)bis(methylene))bis(sulfanediyl))bis(3-(4-(trifluoromethyl)phenethyl)-1,2,3,4-tetrahydro-1,3,5-triazine)], the remaining activity at 10 µM came out at 21% in experiment [1], 14% in experiment [2], 5% in experiment [3] and 11% in experiment [4].

Regarding `Clc1ccc(CCN2CN=C(SCc3cc(Cl)c(Cl)cc3CSC3=NCN(CCc4ccc(Cl)c(Cl)c4)CN3)NC2)cc1Cl` [Compound 38, 6,6′-(((4,5-Dichloro-1,2-phenylene)bis(methylene))bis(sulfanediyl))bis(3-(3,4-dichlorophenethyl)-1,2,3,4-tetrahydro-1,3,5-triazine)], the remaining activity at 10 µM in experiment [1] is 16%; in experiment [2], 37%; in experiment [3], 2%; in experiment [4] it was -1%.

On to `FC(F)(F)c1ccc(CCN2CN=C(SCc3cc(Cl)c(Cl)cc3CSC3=NCN(CCc4ccc(C(F)(F)F)cc4)CN3)NC2)cc1` [Compound 143, 6,6′-(((4,5-Dichloro-1,2-phenylene)bis(methylene))bis(sulfanediyl))bis(3-(4-(trifluoromethyl)phenethyl)-1,2,3,4-tetrahydro-1,3,5-triazine)], for which the remaining activity at 10 µM in experiment [1] was found to be 17%; in experiment [2], 6%; in experiment [3], 9%; in experiment [4], 7%.

Regarding `Clc1ccc(CN2CN=C(SCc3cc(Cl)c(Cl)cc3CSC3=NCN(Cc4ccc(Cl)c(Cl)c4)CN3)NC2)cc1Cl` [Compound 56, 6,6′-(((4,5-Dichloro-1,2-phenylene)bis(methylene))bis(sulfanediyl))bis(3-(3,4-dichlorobenzyl)-1,2,3,4-tetrahydro-1,3,5-triazine)], the remaining activity at 10 µM in experiment [1] was 41%; in experiment [2], 35%; in experiment [3] it was 4%; in experiment [4] it was 2%.

As for `N#Cc1ccc(CNC(=O)Cc2ccccc2CSC(=N)N)cc1` [Compound 67, 2-(2-((4-Cyanobenzyl)amino)-2-oxoethyl)benzyl carbamimidothioate hydrobromide], the remaining activity at 10 µM was determined as 39% in experiment [1], 46% in experiment [2], 36% in experiment [3] and 64% in experiment [4].

Regarding `Fc1ccc(CN2CN=C(SCc3ccccc3CSC3=NCN(Cc4ccc(F)c(Cl)c4)CN3)NC2)cc1Cl` [Compound 145, 1,2-Bis(((5-(3-Chloro-4-fluorobenzyl)-1,4,5,6-tetrahydro-1,3,5-triazin-2-yl)thio)methyl)benzene], the remaining activity at 10 µM in experiment [1] came to 69%; in experiment [2], 40%; in experiment [3], 18%; in experiment [4], 12%.

Take `Fc1ccc(CN2CN=C(SCc3cc(Cl)c(Cl)cc3CSC3=NCN(Cc4ccc(F)c(Cl)c4)CN3)NC2)cc1Cl` [Compound 139, 6,6′-(((4,5-Dichloro-1,2-phenylene)bis(methylene))bis(sulfanediyl))bis(3-(3-chloro-4-fluorobenzyl)-1,2,3,4-tetrahydro-1,3,5-triazine)]: the remaining activity at 10 µM in experiment [1] came to 24%; in experiment [2] it was 14%; in experiment [3], 8%; in experiment [4] it was 11%.

Take `N=C(N)[Se]Cc1ccc(Cl)cc1C[Se]C(=N)N` [Compound 109, (4-Chloro-1,2-phenylene)bis(methylene) dicarbamimidoselenoate dihydrobromide]: the remaining activity at 10 µM in experiment [1] turned out to be 61%; in experiment [2], 57%; in experiment [3], 19%; in experiment [4], 63%.

`Clc1ccccc1CCN1CN=C(SCc2ccccc2CSC2=NCN(CCc3ccccc3Cl)CN2)NC1` [Compound 28, 1,2-bis(((5-(2-chlorophenethyl)-1,4,5,6-tetrahydro-1,3,5-triazin-2-yl)thio)methyl)benzene]: the remaining activity at 10 µM in experiment [1] worked out at 40%; in experiment [2] it was 53%; in experiment [3] it was 7%; in experiment [4], 3%.

For `NC(=O)SCc1ccccc1CS/C(N)=N/c1ccc(F)c(Cl)c1` [Compound 59, (E)-S-(2-(((N′-(3-Chloro-4-fluorophenyl)carbamimidoyl)thio)methyl)benzyl) carbamothioate hydrobromide], the remaining activity at 10 µM in experiment [1] is -3%; in experiment [2] it was 1%; in experiment [3], 1%; in experiment [4] it was 4%.

Regarding `N/C(=N\c1cccc(Cl)c1)SCc1cc(Cl)c(Cl)cc1CS/C(N)=N/c1cccc(Cl)c1` [Compound 125, (4,5-Dichloro-1,2-phenylene)bis(methylene) (E,E)-bis(N′-(3-chlorophenyl)carbamimidothioate) dihydrobromide], the remaining activity at 10 µM in experiment [1] was -2%; in experiment [2], 7%; in experiment [3] it was 11%; in experiment [4], 3%.

Turning to `Cc1ccc(CNC(=O)c2ccc(Br)cc2CS/C(N)=N/c2ccc(F)c(Cl)c2)cc1` [Compound 91, 5-Bromo-2-((4-methylbenzyl)carbamoyl)benzyl (E)-N′-(3-chloro-4-fluorophenyl)carbamimidothioate hydrobromide], the remaining activity at 10 µM was found to be 78% in experiment [1], 103% in experiment [2], 51% in experiment [3] and 26% in experiment [4].

With `Brc1ccc(CS/C(=N/C2CCCCC2)NC2CCCCC2)c(CS/C(=N/C2CCCCC2)NC2CCCCC2)c1` [Compound 57, (4-Bromo-1,2-phenylene)bis(methylene) (E,E)-bis(N,N′-dicyclohexylcarbamimidothioate) dihydrobromide], the remaining activity at 10 µM in experiment [1] came out at 83%; in experiment [2], 80%; in experiment [3], 3%; in experiment [4] it was 12%.

`COc1ccc(CCN2CN=C(SCc3ccc(F)cc3CSC3=NCN(CCc4ccc(OC)cc4)CN3)NC2)cc1` [Compound 147, 6,6′-(((4-Fluoro-1,2-phenylene)bis(methylene))bis(sulfanediyl))bis(3-(4-methoxyphenethyl)-1,2,3,4-tetrahydro-1,3,5-triazine)]: the remaining activity at 10 µM was determined as 32% in experiment [1], 10% in experiment [2], 16% in experiment [3] and 16% in experiment [4].

`N#Cc1ccc(CNC(=O)c2ccccc2CSC(=N)N)cc1` [Compound 96, 2-((4-Cyanobenzyl)carbamoyl)benzyl carbamimidothioate hydrobromide]: the remaining activity at 10 µM is 71% in experiment [1], 26% in experiment [2], 93% in experiment [3] and 38% in experiment [4].

On to `N=C(N)SCc1cc(Br)ccc1C(=O)NCc1ccc(Cl)cc1Cl` [Compound 89, 5-Bromo-2-((2,4-dichlorobenzyl)carbamoyl)benzyl carbamimidothioate hydrobromide], for which the remaining activity at 10 µM in experiment [1] was 81%; in experiment [2] it was 12%; in experiment [3] it was 122%; in experiment [4], 51%.

As to `COc1cccc(CCN2CN=C(SCc3cc(Cl)c(Cl)cc3CSC3=NCN(CCc4cccc(OC)c4)CN3)NC2)c1` [Compound 153, 6,6′-(((4,5-Dichloro-1,2-phenylene)bis(methylene))bis(sulfanediyl))bis(3-(3-methoxyphenethyl)-1,2,3,4-tetrahydro-1,3,5-triazine)], the remaining activity at 10 µM in experiment [1] is 8%; in experiment [2], 6%; in experiment [3], 12%; in experiment [4], 9%.

On to `CNC(=O)c1ccc(C#N)cc1CSC(=N)N` [Compound 77, 5-Cyano-2-(methylcarbamoyl)benzyl carbamimidothioate hydrobromide], for which the remaining activity at 10 µM in experiment [1] was determined as 74%; in experiment [2], 101%; in experiment [3] it was 103%; in experiment [4], 89%.
